Patent US20250340557A1, “PYRIMIDINE DERIVATIVE” (ASKA PHARMACEUTICAL CO., LTD., priority 2022, published 2025)

target: T1, human mPGES-1 (Homo sapiens, UniProt O14684); test: Test for mPGES-1 inhibitory activity (microsomal enzyme, PGE2 EIA); assay type: biochemical; settings: microsomes from COS-1 cells transfected with human mPGES-1 cDNA; substrate PGH2 1 μM; 4° C., 4 minutes; PGE2 measured by EIA; read-out: h mPGES1 IC50
T1 construct: made in house; host or cells: COS-1 cells (transient transfection; microsomal fraction used as enzyme)
T1 sequence (O14684 1-152): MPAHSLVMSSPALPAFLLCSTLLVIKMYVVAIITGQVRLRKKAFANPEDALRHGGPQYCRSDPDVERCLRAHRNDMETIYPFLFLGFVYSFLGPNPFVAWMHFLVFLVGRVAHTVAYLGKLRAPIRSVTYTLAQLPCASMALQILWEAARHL
Description: Test Example 1: Test for mPGES-1 Inhibitory Activity
Microsomes were prepared from COS-1 cells transiently transfected with a plasmid containing human mPGES-1 cDNA, and used as mPGES-1 enzyme. The mPGES-1 enzyme was diluted with a sodium phosphate buffer (pH 7.2) containing reduced glutathione (2.5 mM) and EDTA (1 mM), DMSO or a DMSO solution of a test compound (final concentration of DMSO was 2%) was added to the enzyme, and the mixture was preincubated at 4° C. for 15 minutes. Then, PGH2 (Prostaglandin H2) as the substrate was added at a final concentration of 1 μM to start the enzymatic reaction, and after incubation at 4° C. for 4 minutes, a solution of ferric chloride (25 mM) and citric acid (50 mM) was added to terminate the enzymatic reaction. Generated PGE2 (Prostaglandin E2) was measured by using Prostaglandin E2 Express EIA Kit (Cayman Chemical). IC50 values were determined by using a standard method.

SMILES	IC50 [nM]
Cc1nc(-c2c(C(F)(F)F)ccc(CNC(=O)C3(F)CCN(c4ccc(C(F)(F)F)cn4)CC3)c2F)[nH]c(=O)c1F [Example 51, 4-fluoro-N-[2-fluoro-3-(5-fluoro-4-methyl-6-oxo-1,6-dihydropyrimidin-2-yl)-4-(trifluoromethyl)benzyl]-1-[5-(trifluoromethyl)pyridin-2-yl]piperidine-4-carboxamide]	< 1
Cc1nc(-c2c(C(F)(F)F)ccc(CNC(=O)C3CCN(c4ncc(Cl)cc4F)CC3)c2F)[nH]c(=O)c1F [Example 52, 1-(5-chloro-3-fluoropyridin-2-yl)-N-[2-fluoro-3-(5-fluoro-4-methyl-6-oxo-1,6-dihydropyrimidin-2-yl)-4-(trifluoromethyl)benzyl]piperidine-4-carboxamide]	15
Cc1cc(=O)[nH]c(-c2c(C(F)(F)F)ccc(CNC(=O)C3CCN(c4ccc(OC(F)(F)F)cn4)CC3)c2F)n1 [Example 53, N-[2-fluoro-3-(4-methyl-6-oxo-1,6-dihydropyrimidin-2-yl)-4-(trifluoromethyl)benzyl]-1-[5-(trifluoromethoxy)pyridin-2-yl]piperidine-4-carboxamide]	49
O=C(NCc1ccc(C(F)(F)F)c(-c2nc(C(F)F)cc(=O)[nH]2)c1F)C1CCN(c2ncc(C(F)(F)F)cc2F)CC1 [Example 55, N-{3-[4-(difluoromethyl)-6-oxo-1,6-dihydropyrimidin-2-yl]-2-fluoro-4-(trifluoromethyl)benzyl}-1-[3-fluoro-5-(trifluoromethyl)pyridin-2-yl]piperidine-4-carboxamide]	< 1
Cc1cc(=O)[nH]c(-c2c(C(F)(F)F)ccc(CNC(=O)C3(F)CCN(c4ccc(C(F)(F)F)cn4)CC3)c2F)n1 [Example 56, 4-fluoro-N-[2-fluoro-3-(4-methyl-6-oxo-1,6-dihydropyrimidin-2-yl)-4-(trifluoromethyl)benzyl]-1-[5-(trifluoromethyl)pyridin-2-yl]piperidine-4-carboxamide]	21
CCc1nc(-c2c(C(F)(F)F)ccc(CNC(=O)C3CCN(c4ccc(Cl)cn4)CC3)c2F)[nH]c(=O)c1F [Example 57, 1-(5-chloropyridin-2-yl)-N-[3-(4-ethyl-5-fluoro-6-oxo-1,6-dihydropyrimidin-2-yl)-2-fluoro-4-(trifluoromethyl)benzyl]piperidine-4-carboxamide]	< 1
O=C(NCc1ccc(C(F)(F)F)c(-c2nc(C(F)(F)F)cc(=O)[nH]2)c1F)C1CCN(c2ccc(F)cc2)CC1 [Example 58, N-{2-fluoro-3-[6-oxo-4-(trifluoromethyl)-1,6-dihydropyrimidin-2-yl]-4-(trifluoromethyl)benzyl}-1-(4-fluorophenyl)piperidine-4-carboxamide]	< 1
Cc1cccc(N2CCC(C(=O)NCc3ccc(C(F)(F)F)c(-c4nc(C(F)(F)F)cc(=O)[nH]4)c3F)CC2)c1 [Example 59, N-{2-fluoro-3-[6-oxo-4-(trifluoromethyl)-1,6-dihydropyrimidin-2-yl]-4-(trifluoromethyl)benzyl}-1-(3-methylphenyl)piperidine-4-carboxamide]	4.2
Cc1cc(N2CCC(C(=O)NCc3ccc(C(F)(F)F)c(-c4nc(C(F)(F)F)cc(=O)[nH]4)c3F)CC2)ccc1F [Example 60, N-{2-fluoro-3-[6-oxo-4-(trifluoromethyl)-1,6-dihydropyrimidin-2-yl]-4-(trifluoromethyl)benzyl}-1-(4-fluoro-3-methylphenyl)piperidine-4-carboxamide]	< 1
Cc1ccc(N2CCC(C(=O)NCc3ccc(C(F)(F)F)c(-c4nc(C(F)(F)F)cc(=O)[nH]4)c3F)CC2)cc1 [Example 61, N-{2-fluoro-3-[6-oxo-4-(trifluoromethyl)-1,6-dihydropyrimidin-2-yl]-4-(trifluoromethyl)benzyl}-1-(4-methylphenyl)piperidine-4-carboxamide]	0.87
